One data set deals with SARS-CoV-2 Mpro (Severe acute respiratory syndrome coronavirus 2, UniProt P0DTD1). In words: biochemical. Format: biochemical. As to conditions: for IC50: FRET assay, concentration reducing Mpro activity by 50%, mean ± SD of three independent experiments, highest concentration tested 30 μM; for remaining activity at 30 µM: SARS-CoV-2 Mpro, at 30 μM (highest concentration tested), read-out: Percentage of control activity measured in the presence of the indicated drug concentration.

Data set [1] concerns SARS-CoV-2 BetaCoV/Belgium/GHB-03021/2020 strain. In words: microbe, parasite or virus in culture. It counts as cell-based. To be noted: read-out: EC50 + CP_100356.
A short description of another data set: in vitro. It counts as cell-based. As to conditions: African green monkey. The protocol:
(§1) Vero-E6 GFP cells were seeded at 10^4 cells/well in 96-well black plates (PerkinElmer). The following day, cells were incubated, with or without compounds, with 2 μM P-gp inhibitor CP-100356 [47]. The media was removed 24 h after treatment, and the total well GFP fluorescence was measured using Victor NIVO 5 with 485/535 nm excitation wavelength. The cytotoxic effect of compounds was calculated as a percentage of cell viability with respect to untreated control. Data were analyzed using Prism 9. Version 9.1.2.

A further data set concerns Vero-E6 GFP cells. Description: in vitro. It counts as cell-based. As to conditions: concentration reducing Vero E6-GFP viability by 50%; 2 μM CP-100356, 24 h; read-out: CC50 +CP_100356. The protocol:
as §1

The mark [2] stands for this setting: Severe acute respiratory syndrome coronavirus 2, Vero C1008, 72 h, concentration reducing viral replication by 50%, […].

Where two headings read alike, the source gives them in different places.

`O=C1CSC(c2ccc([N+](=O)[O-])cc2)N1CCc1ccccc1` (stereo not drawn) [Compound 4a, 2-(4-nitrophenyl)-3-(phenylethyl)-1,3-thiazolidin-4-one] displayed a melting point of 125 °C. On SARS-CoV-2 Mpro, the IC50 was more than 30 µM and the remaining activity at 30 µM amounted to 53%. For the same compound, the EC50 in data set [1] (setting [2]) was more than 100 µM. This compound came in with a CC50 at 24 h in the data set “in vitro” of more than 100 µM.
Consider `O=C1CSC(c2ccc([N+](=O)[O-])cc2)N1CCc1ccccc1F` (stereo not drawn) [Compound 4b, 2-(4-nitrophenyl)-3-(2-fluorophenylethyl)-1,3-thiazolidin-4-one], for which the melting point lay in the range of 150 to 151 °C. For the same compound, on SARS-CoV-2 Mpro, the IC50 was more than 30 µM and the remaining activity at 30 µM came out at 70%. The EC50 in data set [1] (setting [2]) is more than 100 µM. Moreover, the CC50 at 24 h in the data set “in vitro” was more than 100 µM.
The compound `O=C1CSC(c2ccc([N+](=O)[O-])cc2)N1CCc1cccc(F)c1` (stereo not drawn) [Compound 4c, 2-(4-nitrophenyl)-3-(3-fluorophenylethyl)-1,3-thiazolidin-4-one] came in with a melting point of 165 to 167 °C. Also, on SARS-CoV-2 Mpro, the IC50 was more than 30 µM and the remaining activity at 30 µM amounted to 87%. Further, the EC50 in data set [1] (setting [2]) was more than 100 µM. This compound had a CC50 at 24 h in the data set “in vitro” of more than 100 µM.
As to `O=C1CSC(c2ccc([N+](=O)[O-])cc2)N1CCc1ccc(F)cc1` (stereo not drawn) [Compound 4d, 2-(4-nitrophenyl)-3-(4-fluorophenylethyl)-1,3-thiazolidin-4-one], the melting point lay in the range of 149 to 151 °C. This compound had a 50% inhibitory concentration (IC50) on SARS-CoV-2 Mpro of 27.5 ± 5.5 µM. Besides, the EC50 in data set [1] (setting [2]) was more than 100 µM. In the data set “in vitro”, this compound displayed a CC50 at 24 h of more than 100 µM.
Consider `COc1ccccc1CCN1C(=O)CSC1c1ccc([N+](=O)[O-])cc1` (stereo not drawn) [Compound 4e], for which, at SARS-CoV-2 Mpro, the remaining activity at 30 µM was 54%. Further, in data set [1] (setting [2]), the EC50 is more than 100 µM. In addition, in the data set “in vitro”, the CC50 at 24 h is more than 100 µM.
Compound `O=C1CSC(c2ccc([N+](=O)[O-])cc2)N1CCc1ccccc1Cl` (stereo not drawn) [Compound 4e] yielded a melting point of 123 to 124.5 °C.
Turning to `COc1ccc(CCN2C(=O)CSC2c2ccc([N+](=O)[O-])cc2)cc1` (stereo not drawn) [Compound 4f], the remaining activity at 30 µM on SARS-CoV-2 Mpro came to 82%. Further, the EC50 in data set [1] (setting [2]) was more than 100 µM. The CC50 at 24 h in “in vitro” is more than 100 µM.
As for `O=C1CSC(c2ccc([N+](=O)[O-])cc2)N1CCc1ccccc1Cl` (stereo not drawn) [Compound 4g], the EC50 in data set [1] (setting [2]) was more than 100 µM. The compound further returned a CC50 at 24 h in “in vitro” of more than 100 µM.
As to `O=C1CSC(c2ccc([N+](=O)[O-])cc2)N1CCc1ccc(Cl)cc1` (stereo not drawn) [Compound 4i], the remaining activity at 30 µM at SARS-CoV-2 Mpro stood at 54%. Further, the EC50 in data set [1] (setting [2]) is more than 100 µM. For the same compound, the CC50 at 24 h in “in vitro” is more than 100 µM.
With `CC(C)C[C@H](NC(=O)OCc1ccccc1)C(=O)N[C@@H](CC1CCNC1=O)C(O)S(=O)(=O)O` (stereo partly drawn) [GC376, reference compound], the EC50 in data set [1] stood at 0.626 ± 0.06 µM. The CC50 in the data set on Vero-E6 GFP cells was more than 100 µM.

The term IC50 denotes the concentration that inhibits the measured activity by half. The term EC50 denotes the concentration needed to bring the measured effect to its halfway point. A word on the CC50: it is the concentration giving 50% cytotoxicity. What is called melting point is the temperature of the solid-liquid transition.
